In data set [1] the test system is T. cruzi. Conditions: higher doses given in pulses over prolonged periods; cited from earlier work.
Data set [2] relates to Chagas' disease. The settings on record: cited from earlier work.
Data set [3] concerns T. cruzi epimastigotes. Kind of data set: T. cruzi epimastigote drug sensitivity assay (resazurin). The format is cell-based, Trypanosoma cruzi. The settings on record: Trypanosoma cruzi. As for the experimental part:
To examine the effects of test compounds on the growth of T. cruzi epimastigotes, mid-log-phase parasites were seeded into 96-well plates at a cell density of 5 × 10^5 cells ml^−1. Cells were exposed to test compounds over a range of concentrations (2-fold serial dilutions). Cells were incubated for 4 days, and then 20 μl of 2.5 mM resazurin was added to each well, before measuring the fluorescence (excitation, 528 nm; emission, 590 nm), following a further 24 h of incubation. […] In this equation, [I] represents the inhibitor concentration, and m is the slope factor. Experiments were repeated at least two times, and the data are presented as means plus the standard deviations.
A general note: Alamar Blue is a resazurin reagent that responds to reducing activity.

The test system of data set [4] is chymotrypsin-like activity of the T. cruzi proteasome. Kind of data set: Proteasome chymotrypsin-like activity luminescence assay. The format is biochemical, Trypanosoma cruzi. Conditions: at concentrations up to and including 3.3 μM. On the procedure:
Initially, the impact of compound 1 on the chymotrypsin-like proteolytic activity of the proteasome was assessed using a commercially available indirect enzyme-based luminescent assay. In this assay, activity is monitored in proteasome-enriched T. cruzi epimastigote lysates using Suc-LLVY-aminoluciferin as a substrate ([16]). […] Thus, an alternative route to determine the impact of this arylsulfonamide compound on T. cruzi proteasome function was required.
The effect of inhibitors on the chymotrypsin-like activity of the T. cruzi proteasome was assessed by using a luminescence-based assay, as previously described ([21]).

Data set [5] has as its system T. cruzi malic enzyme (cTcME). Kind of data set: Malic enzyme assay in clarified epimastigote lysates (NADPH production, 340 nm). In kind it is biochemical, Trypanosoma cruzi. The source says:
Malic enzyme (ME) catalyzes the oxidative decarboxylation of malate to pyruvate with the concomitant reduction of NAD(P)^+ to NAD(P)H. In light of our TPP studies, we next sought to determine whether the binding of compound 1 to cTcME inhibits enzymatic activity. The ME-dependent production of NADPH was monitored in clarified lysates of T. cruzi epimastigotes at 340 nm after the addition of malate. In the first instance, this assay was validated using ATR-073, an established inhibitor of cTcME ([27]). […] Similarly, preincubation of lysates with 20 μM and 1 μM concentrations of compound 1 inhibited ME activity by 96 and 68%, respectively (Fig. 4C). […] It should be noted that ATR-073 and compound 1 are structurally similar, both being substituted N-phenyl aryl sulfonamides, this common moiety constituting the pharmacophore of this chemical series.
Logarithmic T. cruzi epimastigotes were harvested (1,690 × g, 10 min, 4°C), washed once in ice-cold phosphate-buffered saline, and resuspended at 2 × 10^9 cells ml^−1 in lysis buffer (10 mM phosphate buffer [pH 7.2], 10 mM EDTA, 5 mM benzamidine, 5 mM phenanthroline, 0.1 mM phenylmethylsulfonyl fluoride) containing 1 mg ml^−1 digitonin, followed by incubation at 28°C for 10 min. The resulting lysate was then centrifuged (13,000 × g, 10 min, 4°C), and the supernatant was harvested and stored on ice. The protein concentration of this clarified lysate was determined by using a standard Bio-Rad protein assay.
The activity of malic enzyme was assayed as previously described ([42]), with minor modifications. T. cruzi clarified lysate (30 μl) was added to a reaction mixture (500 μl final volume) containing 50 mM Tris-HCl buffer (pH 7.6), 1 mM MnCl2, and 0.12 mM NADP^+. Reactions were initiated by the addition of 5 mM L-malate. The reduction of NADP^+ was monitored at 340 nm using a UV-2401 spectrophotometer (Shimadzu). To monitor the effect of test compounds on the activity of malic enzyme, compounds (1 and 20 μM) were preincubated for 10 min with the lysate in the reaction mixture. DMSO (0.2%) was used as control. All enzymatic activities were calculated as Δabs min^−1 mg^−1 of protein.

Structures are written as SMILES. Like-named read-outs stand apart in the source and are kept apart here.

In general, EC50 refers to the concentration that produces a half-maximal response.

`O=C(Cn1ccnc1[N+](=O)[O-])NCc1ccccc1` [benznidazole]: the “outcome of modified treatment regimen in mouse models of infection” value in data set [1] was “sterile parasitological cure”. Moreover, in data set [2], the “interruption or discontinuation of treatment due to severe toxic side effects” value is recorded as ≤ 30 % of cases. Moreover, the individuals cured result in data set [2] (prolonged treatment during the acute stage) was “up to 70%”.
Turning to `CCC(C)NC(=O)c1ccccc1NS(=O)(=O)c1ccc2ccccc2c1` (stereo not shown) [ATR-073], the EC50 in data set [3] (WT, Fig. S3B, one biological replicate) came out at 49 ± 29 µM; in data set [3] (compound 2-Res V cells (so in the source), Fig. S3B, one biological replicate, read-out: EC50), 51 ± 18 µM; in data set [3] (epimastigotes, cell line Wild-type, weighted mean, n ≥ 3, read-out: ATR-073 EC50 values) it was 34 ± 1 µM; in data set [3] (epimastigotes, cell line cTcME OE, weighted mean, n ≥ 3, read-out: ATR-073 EC50 values) it was 32 ± 2 µM. Also, the “effect on the chymotrypsin-like activity of the proteasome” value in data set [4] is recorded as “no effect”. Besides, the entries for the “reduction in ME activity” value in data set [5] (preincubation of lysates with 1 μM) and in data set [5] (preincubation of lysates with 20 μM) were 63% and 96%, respectively.
